# In patent US20240025884A1 (Dong-A ST Co., Ltd., priority 2022, published 2024):
# pIC50: −log10 of the molar value.
# Target: GCN2 (Homo sapiens (Human), UniProt Q9P2K8)
# Assay: GCN2 Biochemical Assay (TR-FRET, GFP-eIF2S1 substrate phosphorylation)
# Details: read-out: IC50 (GCN2 Inhibitory Activity)
# Outline: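 In-house GCN2 (1.6 nM 2× stock) phosphorylates GFP-eIF2S1 (50 nM 2× stock) with ATP (0.2 mM 2× stock) and tRNA, pH 7.5, 70 min at room temperature; 10-point 3.16-fold compound series. TR-FRET detection with Tb-anti-phospho antibody, 2–3 h, Ex 340/Em 490/520 nm; artifact plate spiked with phospho-substrate.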
# Chain of GCN2 (Q9P2K8 whole entry): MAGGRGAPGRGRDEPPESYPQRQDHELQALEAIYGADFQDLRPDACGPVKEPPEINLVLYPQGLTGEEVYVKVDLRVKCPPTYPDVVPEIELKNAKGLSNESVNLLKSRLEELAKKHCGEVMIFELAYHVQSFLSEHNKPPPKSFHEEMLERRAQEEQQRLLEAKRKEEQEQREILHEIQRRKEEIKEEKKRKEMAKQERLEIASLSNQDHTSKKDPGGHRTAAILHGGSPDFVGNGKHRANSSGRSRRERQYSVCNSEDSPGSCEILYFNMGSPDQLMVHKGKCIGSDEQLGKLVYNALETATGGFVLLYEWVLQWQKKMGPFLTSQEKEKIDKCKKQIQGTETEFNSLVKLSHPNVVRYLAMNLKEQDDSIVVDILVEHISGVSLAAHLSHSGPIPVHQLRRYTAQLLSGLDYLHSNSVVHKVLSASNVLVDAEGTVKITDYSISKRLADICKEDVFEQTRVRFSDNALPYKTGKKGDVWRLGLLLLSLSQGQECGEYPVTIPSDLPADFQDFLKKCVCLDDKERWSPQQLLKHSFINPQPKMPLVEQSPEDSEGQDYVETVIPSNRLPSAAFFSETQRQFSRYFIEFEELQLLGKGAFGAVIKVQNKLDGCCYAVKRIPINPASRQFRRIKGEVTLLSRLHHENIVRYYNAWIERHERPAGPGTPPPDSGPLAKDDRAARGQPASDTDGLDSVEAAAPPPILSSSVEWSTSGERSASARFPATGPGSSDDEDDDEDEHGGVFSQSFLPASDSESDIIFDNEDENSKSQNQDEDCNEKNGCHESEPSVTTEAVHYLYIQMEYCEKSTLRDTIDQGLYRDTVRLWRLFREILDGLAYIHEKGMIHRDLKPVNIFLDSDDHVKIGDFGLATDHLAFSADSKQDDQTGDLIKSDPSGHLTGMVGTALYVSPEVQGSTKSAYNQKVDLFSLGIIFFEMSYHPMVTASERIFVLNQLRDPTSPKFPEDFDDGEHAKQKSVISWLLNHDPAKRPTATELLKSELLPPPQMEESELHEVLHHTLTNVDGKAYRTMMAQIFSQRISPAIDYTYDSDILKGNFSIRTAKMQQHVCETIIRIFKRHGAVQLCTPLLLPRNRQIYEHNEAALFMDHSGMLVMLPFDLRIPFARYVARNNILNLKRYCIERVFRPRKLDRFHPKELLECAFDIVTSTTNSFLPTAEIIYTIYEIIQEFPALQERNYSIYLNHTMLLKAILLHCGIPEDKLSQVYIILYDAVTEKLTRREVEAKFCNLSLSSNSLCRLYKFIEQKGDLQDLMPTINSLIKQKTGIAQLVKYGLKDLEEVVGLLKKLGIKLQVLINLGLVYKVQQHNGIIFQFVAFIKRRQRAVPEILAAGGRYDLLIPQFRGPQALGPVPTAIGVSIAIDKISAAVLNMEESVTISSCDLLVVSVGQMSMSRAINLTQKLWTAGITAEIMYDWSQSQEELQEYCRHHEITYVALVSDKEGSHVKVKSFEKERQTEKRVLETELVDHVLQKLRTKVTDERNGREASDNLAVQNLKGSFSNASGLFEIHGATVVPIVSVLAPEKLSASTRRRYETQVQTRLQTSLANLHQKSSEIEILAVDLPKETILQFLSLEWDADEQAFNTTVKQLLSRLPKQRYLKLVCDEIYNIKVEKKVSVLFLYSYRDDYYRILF
row,Compound,pIC50
1,"Cc1cnc(Nc2cc(C)n(C)n2)nc1-c1c[nH]c2c(N3Cc4c(cccc4-c4ccnc(N5CCNCC5)c4)C3=O)cccc12 [Example 408, 2-(3-(2-((1,5-dimethyl-1H-pyrazol-3-yl)amino)-5-methylpyrimidin-4-yl)-1H-indol-7-yl)-4-(2-(piperazin-1-yl)pyridin-4-yl)isoindolin-1-one]",> 8.00
2,"Cc1cnc(Nc2cc(C)n(C)n2)nc1-c1c[nH]c2c(N3Cc4c(cccc4-c4ccc(S(=O)(=O)N5CCCC5)cc4)C3=O)cccc12 [Example 409, 2-(3-(2-((1,5-dimethyl-1H-pyrazol-3-yl)amino)-5-methylpyrimidin-4-yl)-1H-indol-7-yl)-4-(4-(pyrrolidin-1-ylsulfonyl)phenyl)isoindolin-1-one]",7.00 to 8.00
3,"Cc1cnc(Nc2cc(C)n(C)n2)nc1-c1c[nH]c2c(N3Cc4c(/C=C/c5cccc(F)c5)cccc4C3=O)cccc12 [Example 410, (E)-2-(3-(2-((1,5-dimethyl-1H-pyrazol-3-yl)amino)-5-methylpyrimidin-4-yl)-1H-indol-7-yl)-4-(3-fluorostyryl)isoindolin-1-one]",6.00 to 7.00
4,"Cc1cnc(Nc2cc(C)n(C)n2)nc1-c1c[nH]c2c(N3Cc4c(cccc4-c4ccnc5[nH]ccc45)C3=O)cccc12 [Example 411, 2-(3-(2-((1,5-dimethyl-1H-pyrazol-3-yl)amino)-5-methylpyrimidin-4-yl)-1H-indol-7-yl)-4-(1H-pyrrolo[2,3-b]pyridin-4-yl)isoindolin-1-one]",> 8.00
5,"Cc1cnc(Nc2cc(C)n(C)n2)nc1-c1c[nH]c2c(N3Cc4c(cccc4-c4ccc(C(=O)N5CCC(=O)CC5)cc4)C3=O)cccc12 [Example 412, 2-(3-(2-((1,5-dimethyl-1H-pyrazol-3-yl)amino)-5-methylpyrimidin-4-yl)-1H-indol-7-yl)-4-(4-(4-oxopiperidine-1-carbonyl)phenyl)isoindolin-1-one]",> 8.00
6,"Cc1cnc(Nc2cc(C)n(C)n2)nc1-c1c[nH]c2c(N3Cc4c(cccc4C4=CCSCC4)C3=O)cccc12 [Example 413, 4-(3,6-dihydro-2H-thiopyran-4-yl)-2-(3-(2-((1,5-dimethyl-1H-pyrazol-3-yl)amino)-5-methylpyrimidin-4-yl)-1H-indol-7-yl)isoindolin-1-one]",> 8.00
7,"Cc1cnc(Nc2cc(C)n(C)n2)nc1-c1c[nH]c2c(N3Cc4c(cccc4-c4cnc(N(C)C)nc4)C3=O)cccc12 [Example 414, 2-(3-(2-((1,5-dimethyl-1H-pyrazol-3-yl)amino)-5-methylpyrimidin-4-yl)-1H-indol-7-yl)-4-(2-(dimethylamino)pyrimidin-5-yl)isoindolin-1-one]",> 8.00
8,"Cc1cnc(Nc2cc(C)n(C)n2)nc1-c1c[nH]c2c(N3Cc4c(cccc4-c4cnn(CC5CC5)c4)C3=O)cccc12 [Example 415, 4-(1-(cyclopropylmethyl)-1H-pyrazol-4-yl)-2-(3-(2-((1,5-dimethyl-1H-pyrazol-3-yl)amino)-5-methylpyrimidin-4-yl)-1H-indol-7-yl)isoindolin-1-one]",> 8.00
9,"Cc1cnc(Nc2cc(C)n(C)n2)nc1-c1c[nH]c2c(N3Cc4c(cccc4-c4cnn(CCN5CCOCC5)c4)C3=O)cccc12 [Example 416, 2-(3-(2-((1,5-dimethyl-1H-pyrazol-3-yl)amino)-5-methylpyrimidin-4-yl)-1H-indol-7-yl)-4-(1-(2-morpholinoethyl)-1H-pyrazol-4-yl)isoindolin-1-one]",> 8.00
10,"Cc1cnc(Nc2cc(C)n(C)n2)nc1-c1c[nH]c2c(N3Cc4c(cccc4-c4cncnc4)C3=O)cccc12 [Example 417, 2-(3-(2-((1,5-dimethyl-1H-pyrazol-3-yl)amino)-5-methylpyrimidin-4-yl)-1H-indol-7-yl)-4-(pyrimidin-5-yl)isoindolin-1-one]",> 8.00
11,"Cc1cnc(Nc2cc(C)n(C)n2)nc1-c1c[nH]c2c(N3Cc4c(cccc4-c4cnc(N)nc4)C3=O)cccc12 [Example 418, 4-(2-aminopyrimidin-5-yl)-2-(3-(2-((1,5-dimethyl-1H-pyrazol-3-yl)amino)-5-methylpyrimidin-4-yl)-1H-indol-7-yl)isoindolin-1-one]",> 8.00
12,"Cc1cnc(Nc2cc(C)n(C)n2)nc1-c1c[nH]c2c(N3Cc4c(cccc4-c4cncc(N)c4)C3=O)cccc12 [Example 419, 4-(5-aminopyridin-3-yl)-2-(3-(2-((1,5-dimethyl-1H-pyrazol-3-yl)amino)-5-methylpyrimidin-4-yl)-1H-indol-7-yl)isoindolin-1-one]",> 8.00
13,"Cc1cnc(Nc2cc(C)n(C)n2)nc1-c1c[nH]c2c(N3Cc4c(cccc4-c4ccc(N)nc4)C3=O)cccc12 [Example 420, 4-(6-aminopyridin-3-yl)-2-(3-(2-((1,5-dimethyl-1H-pyrazol-3-yl)amino)-5-methylpyrimidin-4-yl)-1H-indol-7-yl)isoindolin-1-one]",> 8.00
14,"Cc1cnc(Nc2cc(C)n(C)n2)nc1-c1c[nH]c2c(N3Cc4c(cccc4-c4ccncn4)C3=O)cccc12 [Example 421, 2-(3-(2-((1,5-dimethyl-1H-pyrazol-3-yl)anlino)-5-methylpyrimidin-4-yl)-1H-indol-7-yl)-4-(pyrimidin-4-yl)isoindolin-1-one]",> 8.00
15,"Cc1cnc(Nc2cc(C)n(C)n2)nc1-c1c[nH]c2c(N3Cc4c(cccc4-c4ccnc(N)n4)C3=O)cccc12 [Example 422, 4-(2-aminopyrimidin-4-yl)-2-(3-(2-((1,5-dimethyl-1H-pyrazol-3-yl)amino)-5-methylpyrimidin-4-yl)-1H-indol-7-yl)isoindolin-1-one]",> 8.00
16,"Cc1cnc(Nc2cc(C)n(C)n2)nc1-c1c[nH]c2c(N3Cc4c(cccc4-c4cc(N5CCN(C)CC5)ccn4)C3=O)cccc12 [Example 423, 2-(3-(2-((1,5-dimethyl-1H-pyrazol-3-yl)amino)-5-methylpyrimidin-4-yl)-1H-indol-7-yl)-4-(4-(4-methylpiperazin-1-yl)pyridin-2-yl)isoindolin-1-one]",> 8.00
17,"Cc1cnc(Nc2cc(C)n(C)n2)nc1-c1c[nH]c2c(N3Cc4c(cccc4-c4cnc(N5CCNCC5)nc4)C3=O)cccc12 [Example 424, 2-(3-(2-((1,5-dimethyl-1H-pyrazol-3-yl)amino)-5-methylpyrimidin-4-yl)-1H-indol-7-yl)-4-(2-(piperazin-1-yl)pyrimidin-5-yl)isoindolin-1-one]",> 8.00
18,"Cc1cnc(Nc2cc(C)n(C)n2)nc1-c1c[nH]c2c(N3Cc4c(cccc4-c4ccc(N5CCOCC5)nc4)C3=O)cccc12 [Example 425, 2-(3-(2-((1,5-dimethyl-1H-pyrazol-3-yl)amino)-5-methylpyrimidin-4-yl)-1H-indol-7-yl)-4-(6-morpholinopyridin-3-yl)isoindolin-1-one]",> 8.00
19,"Cc1cnc(Nc2cc(C)n(C)n2)nc1-c1c[nH]c2c(N3Cc4c(cccc4-c4ccc(N5CCN(C)CC5)cc4)C3=O)cccc12 [Example 426, 2-(3-(2-((1,5-dimethyl-1H-pyrazol-3-yl)amino)-5-methylpyrimidin-4-yl)-1H-indol-7-yl)-4-(4-(4-methylpiperazin-1-yl)phenyl)isoindolin-1-one]",> 8.00
20,"Cc1cnc(Nc2cc(C)n(C)n2)nc1-c1c[nH]c2c(N3Cc4c(cccc4-c4cc(F)nc(F)c4)C3=O)cccc12 [Example 427, 4-(2,6-difluoropyridin-4-yl)-2-(3-(2-((1,5-dimethyl-1H-pyrazol-3-yl)amino)-5-methylpyrimidin-4-yl)-1H-indol-7-yl)isoindolin-1-one]",> 8.00
21,"Cc1cnc(Nc2cc(C)n(C)n2)nc1-c1c[nH]c2c(N3Cc4c(cccc4-c4c(F)cncc4F)C3=O)cccc12 [Example 428, 4-(3,5-difluoropyridin-4-yl)-2-(3-(2-((1,5-dimethyl-1H-pyrazol-3-yl)amino)-5-methylpyrimidin-4-yl)-1H-indol-7-yl)isoindolin-t-one]",> 8.00
22,"Cc1cc(-c2cccc3c2CN(c2cccc4c(-c5nc(Nc6cc(C)n(C)n6)ncc5C)c[nH]c24)C3=O)ccn1 [Example 429, 2-(3-(2-((1,5-dimethyl-1H-pyrazol-3-yl)amino)-5-methylpyrimidin-4-yl)-1H-indol-7-yl)-4-(2-methylpyridin-4-yl)isoindolin-1-one]",> 8.00
23,"Cc1cnc(Nc2cc(C)n(C)n2)nc1-c1c[nH]c2c(N3Cc4c(cccc4-c4ccc5c(c4)CNC5)C3=O)cccc12 [Example 430, 2-(3-(2-((1,5-dimethyl-1H-pyrazol-3-yl)amino)-5-methylpyrimidin-4-yl)-1H-indol-7-yl)-[4,5′-biisoindolin]-1-one]",> 8.00
24,"Cc1cnc(Nc2cc(C)n(C)n2)nc1-c1c[nH]c2c(N3Cc4c(cccc4-c4cccnc4F)C3=O)cccc12 [Example 431, 2-(3-(2-((1,5-dimethyl-1H-pyrazol-3-yl)amino)-5-methylpyrimidin-4-yl)-1H-indol-7-yl)-4-(2-fluoropyridin-3-yl)isoindolin-1-one]",> 8.00
25,"Cc1cnc(Nc2cc(C)n(C)n2)nc1-c1c[nH]c2c(N3Cc4c(cccc4-c4ccc(C#N)cc4)C3=O)cccc12 [Example 432, 4-(2-(3-(2-((1,5-dimethyl-1H-pyrazol-3-yl)amino)-5-methylpyrimidin-4-yl)-1H-indol-7-yl)-1-oxoisoindolin-4-yl)benzonitrile]",> 8.00
26,"Cc1cnc(Nc2cc(C)n(C)n2)nc1-c1c[nH]c2c(N3Cc4c(cccc4-c4ccc(C#N)cc4F)C3=O)cccc12 [Example 433, 4-(2-(3-(2-((1,5-dimethyl-1H-pyrazol-3-yl)amino)-5-methylpyrimidin-4-yl)-1H-indol-7-yl)-1-oxoisoindolin-4-yl)-3-fluorobenzonitrile]",7.00 to 8.00
27,"Cc1cnc(Nc2cc(C)n(C)n2)nc1-c1c[nH]c2c(N3Cc4c(cccc4-c4ccccc4C(F)(F)F)C3=O)cccc12 [Example 434, 2-(3-(2-((1,5-dimethyl-1H-pyrazol-3-yl)amino)-5-methylpyrimidin-4-yl)-1H-indol-7-yl)-4-(2-(trifluoromethyl)phenyl)isoindolin-1-one]",6.00 to 7.00
